Measurements reported in patent US8772480B2, “Inhibitors of PI3 kinase and/or mTOR” (priority 2009, dated 2014).

What was measured:
[1] = molecular target: ProfilerPro Kinase Selectivity Assay Kit kinases (Homo sapiens, UniProt O00141); format: biochemical; conditions: SGK1; 1 μM compound concentration
Procedure: (§1) Compounds were profiled using a LabChip® EZ Reader II platform and a ProfilerPro Kinase Selectivity Assay Kit (Caliper Lifesciences Inc., Hopkinton, Mass.). Compounds were tested at a concentration of 1 M in duplicate, with mean data reported as percent of control (POC).

[2] = molecular target: ProfilerPro Kinase Selectivity Assay Kit kinases (Homo sapiens, UniProt O14757); format: biochemical; conditions: CHK1; 1 μM compound concentration
Procedure: as §1

[3] = molecular target: ProfilerPro Kinase Selectivity Assay Kit kinases (Homo sapiens, UniProt O14965); format: biochemical; conditions: AURORA A; 1 μM compound concentration
Procedure: as §1

[4] = molecular target: ProfilerPro Kinase Selectivity Assay Kit kinases (Homo sapiens, UniProt O75582); format: biochemical; conditions: MSK1; 1 μM compound concentration
Procedure: as §1

[5] = molecular target: ProfilerPro Kinase Selectivity Assay Kit kinases (Homo sapiens, UniProt O95819); format: biochemical; conditions: HGK; 1 μM compound concentration
Procedure: as §1

[6] = molecular target: ProfilerPro Kinase Selectivity Assay Kit kinases (Homo sapiens, UniProt O96017); format: biochemical; conditions: CHK2; 1 μM compound concentration
Procedure: as §1

[7] = molecular target: ProfilerPro Kinase Selectivity Assay Kit kinases (Homo sapiens, UniProt P00519); format: biochemical; conditions: ABL; 1 μM compound concentration
Procedure: as §1

[8] = molecular target: ProfilerPro Kinase Selectivity Assay Kit kinases (Homo sapiens, UniProt P04049); format: biochemical; conditions: cRAF; 1 μM compound concentration
Procedure: as §1

[9] = molecular target: ProfilerPro Kinase Selectivity Assay Kit kinases (Homo sapiens, UniProt P06239); format: biochemical; conditions: LCK; 1 μM compound concentration
Procedure: as §1

[10] = molecular target: ProfilerPro Kinase Selectivity Assay Kit kinases (Homo sapiens, UniProt P06241); format: biochemical; conditions: FYN; 1 μM compound concentration
Procedure: as §1

[11] = molecular target: ProfilerPro Kinase Selectivity Assay Kit kinases (Homo sapiens, UniProt P07948); format: biochemical; conditions: LYN; 1 μM compound concentration
Procedure: as §1

[12] = molecular target: ProfilerPro Kinase Selectivity Assay Kit kinases (Homo sapiens, UniProt P08069); format: biochemical; conditions: IGF1R; 1 μM compound concentration
Procedure: as §1

[13] = molecular target: ProfilerPro Kinase Selectivity Assay Kit kinases (Homo sapiens, UniProt P11362); format: biochemical; conditions: FGFR1; 1 μM compound concentration
Procedure: as §1

[14] = molecular target: ProfilerPro Kinase Selectivity Assay Kit kinases (Homo sapiens, UniProt P12931); format: biochemical; conditions: SRC; 1 μM compound concentration
Procedure: as §1

[15] = molecular target: ProfilerPro Kinase Selectivity Assay Kit kinases (Homo sapiens, UniProt P17612); format: biochemical; conditions: PKA alpha; 1 μM compound concentration
Procedure: as §1

[16] = molecular target: ProfilerPro Kinase Selectivity Assay Kit kinases (Homo sapiens, UniProt P23443); format: biochemical; conditions: p70S6K; 1 μM compound concentration
Procedure: as §1

[17] = molecular target: ProfilerPro Kinase Selectivity Assay Kit kinases (Homo sapiens, UniProt P24941); format: biochemical; conditions: CDK2; 1 μM compound concentration
Procedure: as §1

[18] = molecular target: ProfilerPro Kinase Selectivity Assay Kit kinases (Homo sapiens, UniProt P27361); format: biochemical; conditions: ERK1; 1 μM compound concentration
Chain of ProfilerPro Kinase Selectivity Assay Kit kinases (Homo sapiens, UniProt P27361) (P27361 2-379 limits assumed): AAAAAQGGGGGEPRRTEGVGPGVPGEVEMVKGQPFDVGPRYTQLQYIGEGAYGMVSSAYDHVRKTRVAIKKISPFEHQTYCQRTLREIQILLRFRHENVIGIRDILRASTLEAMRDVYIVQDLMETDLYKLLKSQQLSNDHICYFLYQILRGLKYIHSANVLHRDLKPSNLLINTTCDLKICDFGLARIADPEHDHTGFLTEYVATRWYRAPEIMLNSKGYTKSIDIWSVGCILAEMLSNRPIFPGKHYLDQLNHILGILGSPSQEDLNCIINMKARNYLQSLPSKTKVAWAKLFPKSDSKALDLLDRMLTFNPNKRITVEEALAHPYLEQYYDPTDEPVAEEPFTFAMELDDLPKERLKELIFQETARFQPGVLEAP
Procedure: as §1

[19] = molecular target: ProfilerPro Kinase Selectivity Assay Kit kinases (Homo sapiens, UniProt P28482); format: biochemical; conditions: ERK2; 1 μM compound concentration
Procedure: as §1

[20] = molecular target: ProfilerPro Kinase Selectivity Assay Kit kinases (Homo sapiens, UniProt P31749); format: biochemical; conditions: AKT1; 1 μM compound concentration
Procedure: as §1

[21] = molecular target: ProfilerPro Kinase Selectivity Assay Kit kinases (Homo sapiens, UniProt P35968); format: biochemical; conditions: KDR; 1 μM compound concentration
Chain of ProfilerPro Kinase Selectivity Assay Kit kinases (Homo sapiens, UniProt P35968) (P35968 20-1356 limits assumed): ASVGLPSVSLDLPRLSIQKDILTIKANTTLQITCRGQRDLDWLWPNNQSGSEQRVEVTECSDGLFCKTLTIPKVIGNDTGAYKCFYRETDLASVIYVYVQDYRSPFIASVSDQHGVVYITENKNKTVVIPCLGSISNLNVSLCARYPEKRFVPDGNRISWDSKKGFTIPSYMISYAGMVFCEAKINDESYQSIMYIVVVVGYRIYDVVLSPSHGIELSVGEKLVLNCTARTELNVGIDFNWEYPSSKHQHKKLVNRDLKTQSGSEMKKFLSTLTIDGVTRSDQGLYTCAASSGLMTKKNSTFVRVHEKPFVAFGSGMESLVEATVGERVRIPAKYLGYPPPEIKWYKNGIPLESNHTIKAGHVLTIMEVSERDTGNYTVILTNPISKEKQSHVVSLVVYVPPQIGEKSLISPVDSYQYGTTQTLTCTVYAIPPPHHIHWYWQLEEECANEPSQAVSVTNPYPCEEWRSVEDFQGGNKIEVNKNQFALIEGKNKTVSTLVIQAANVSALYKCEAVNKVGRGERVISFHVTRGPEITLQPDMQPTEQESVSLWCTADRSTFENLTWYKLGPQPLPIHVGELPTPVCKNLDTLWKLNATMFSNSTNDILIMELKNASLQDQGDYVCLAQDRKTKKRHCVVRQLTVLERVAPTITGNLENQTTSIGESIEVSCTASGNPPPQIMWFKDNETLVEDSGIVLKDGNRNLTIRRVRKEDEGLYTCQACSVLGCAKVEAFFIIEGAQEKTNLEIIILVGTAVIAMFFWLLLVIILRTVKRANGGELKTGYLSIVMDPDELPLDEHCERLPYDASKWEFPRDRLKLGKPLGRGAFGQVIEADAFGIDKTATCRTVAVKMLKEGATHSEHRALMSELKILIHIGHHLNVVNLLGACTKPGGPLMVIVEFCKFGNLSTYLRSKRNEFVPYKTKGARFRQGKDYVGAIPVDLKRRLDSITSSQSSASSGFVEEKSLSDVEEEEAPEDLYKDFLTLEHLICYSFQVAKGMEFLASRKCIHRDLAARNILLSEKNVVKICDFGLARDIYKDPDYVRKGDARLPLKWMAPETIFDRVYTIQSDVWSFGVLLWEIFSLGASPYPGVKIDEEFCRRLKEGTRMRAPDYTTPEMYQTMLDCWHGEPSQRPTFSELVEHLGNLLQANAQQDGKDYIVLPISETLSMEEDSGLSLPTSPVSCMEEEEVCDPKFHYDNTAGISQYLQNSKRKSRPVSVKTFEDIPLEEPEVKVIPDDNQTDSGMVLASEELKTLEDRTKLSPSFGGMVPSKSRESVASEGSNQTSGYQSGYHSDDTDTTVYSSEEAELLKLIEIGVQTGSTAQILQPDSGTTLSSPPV
Procedure: as §1

[22] = molecular target: ProfilerPro Kinase Selectivity Assay Kit kinases (Homo sapiens, UniProt P36888); format: biochemical; conditions: FLT3; 1 μM compound concentration
Chain of ProfilerPro Kinase Selectivity Assay Kit kinases (Homo sapiens, UniProt P36888) (P36888 27-993 limits assumed): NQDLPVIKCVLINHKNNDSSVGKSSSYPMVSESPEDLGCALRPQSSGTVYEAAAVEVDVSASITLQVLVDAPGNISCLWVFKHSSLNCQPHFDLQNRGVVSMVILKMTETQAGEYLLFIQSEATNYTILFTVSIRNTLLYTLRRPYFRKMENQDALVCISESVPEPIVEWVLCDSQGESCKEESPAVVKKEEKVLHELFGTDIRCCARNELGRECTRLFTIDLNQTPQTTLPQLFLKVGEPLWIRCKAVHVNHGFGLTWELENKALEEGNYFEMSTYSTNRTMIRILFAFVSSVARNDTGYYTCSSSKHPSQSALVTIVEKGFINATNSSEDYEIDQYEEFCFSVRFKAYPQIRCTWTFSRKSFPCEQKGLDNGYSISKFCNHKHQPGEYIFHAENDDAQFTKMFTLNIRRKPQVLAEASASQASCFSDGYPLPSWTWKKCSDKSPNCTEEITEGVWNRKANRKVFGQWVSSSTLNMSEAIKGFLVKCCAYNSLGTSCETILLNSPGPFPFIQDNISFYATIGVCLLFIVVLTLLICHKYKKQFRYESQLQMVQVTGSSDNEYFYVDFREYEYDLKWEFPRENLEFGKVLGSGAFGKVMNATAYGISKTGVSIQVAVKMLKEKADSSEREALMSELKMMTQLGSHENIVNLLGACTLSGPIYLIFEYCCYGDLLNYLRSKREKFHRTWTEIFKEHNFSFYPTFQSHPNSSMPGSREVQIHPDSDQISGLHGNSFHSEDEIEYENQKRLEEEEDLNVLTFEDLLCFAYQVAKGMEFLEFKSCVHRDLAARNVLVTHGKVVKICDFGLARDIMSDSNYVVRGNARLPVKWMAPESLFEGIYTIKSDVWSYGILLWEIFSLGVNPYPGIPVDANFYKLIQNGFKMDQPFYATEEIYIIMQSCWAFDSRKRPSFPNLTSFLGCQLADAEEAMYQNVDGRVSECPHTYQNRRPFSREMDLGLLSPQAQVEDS
Procedure: as §1

[23] = molecular target: ProfilerPro Kinase Selectivity Assay Kit kinases (Homo sapiens, UniProt P43405); format: biochemical; conditions: SYK; 1 μM compound concentration
Procedure: as §1

[24] = molecular target: ProfilerPro Kinase Selectivity Assay Kit kinases (Homo sapiens, UniProt Q05513); format: biochemical; conditions: PKC zeta; 1 μM compound concentration
Procedure: as §1

[25] = molecular target: ProfilerPro Kinase Selectivity Assay Kit kinases (Homo sapiens, UniProt Q06187); format: biochemical; conditions: BTK; 1 μM compound concentration
Chain of ProfilerPro Kinase Selectivity Assay Kit kinases (Homo sapiens, UniProt Q06187) (Q06187 2-659 limits assumed): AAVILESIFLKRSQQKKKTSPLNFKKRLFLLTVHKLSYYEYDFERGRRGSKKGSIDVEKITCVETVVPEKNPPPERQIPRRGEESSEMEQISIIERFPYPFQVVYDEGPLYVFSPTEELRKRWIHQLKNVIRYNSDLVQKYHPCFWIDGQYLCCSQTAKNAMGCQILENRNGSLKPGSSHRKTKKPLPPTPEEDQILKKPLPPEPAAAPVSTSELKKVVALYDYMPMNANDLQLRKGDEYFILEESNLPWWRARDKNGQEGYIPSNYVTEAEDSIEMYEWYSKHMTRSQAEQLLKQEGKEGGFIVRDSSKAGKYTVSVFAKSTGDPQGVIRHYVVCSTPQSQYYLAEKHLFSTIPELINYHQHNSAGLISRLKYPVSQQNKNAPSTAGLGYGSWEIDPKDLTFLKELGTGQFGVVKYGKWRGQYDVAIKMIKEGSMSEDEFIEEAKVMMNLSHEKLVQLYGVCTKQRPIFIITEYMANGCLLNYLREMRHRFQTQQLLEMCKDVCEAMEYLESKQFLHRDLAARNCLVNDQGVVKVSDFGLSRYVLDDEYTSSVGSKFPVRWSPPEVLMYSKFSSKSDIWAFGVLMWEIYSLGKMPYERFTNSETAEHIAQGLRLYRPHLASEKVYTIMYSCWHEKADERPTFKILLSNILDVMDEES
Procedure: as §1

[26] = molecular target: ProfilerPro Kinase Selectivity Assay Kit kinases (Homo sapiens, UniProt Q13177); format: biochemical; conditions: PAK2; 1 μM compound concentration
Procedure: as §1

[27] = molecular target: ProfilerPro Kinase Selectivity Assay Kit kinases (Homo sapiens, UniProt Q13976); format: biochemical; conditions: PKGa2; 1 μM compound concentration
Chain of ProfilerPro Kinase Selectivity Assay Kit kinases (Homo sapiens, UniProt Q13976) (Q13976 2-671 limits assumed): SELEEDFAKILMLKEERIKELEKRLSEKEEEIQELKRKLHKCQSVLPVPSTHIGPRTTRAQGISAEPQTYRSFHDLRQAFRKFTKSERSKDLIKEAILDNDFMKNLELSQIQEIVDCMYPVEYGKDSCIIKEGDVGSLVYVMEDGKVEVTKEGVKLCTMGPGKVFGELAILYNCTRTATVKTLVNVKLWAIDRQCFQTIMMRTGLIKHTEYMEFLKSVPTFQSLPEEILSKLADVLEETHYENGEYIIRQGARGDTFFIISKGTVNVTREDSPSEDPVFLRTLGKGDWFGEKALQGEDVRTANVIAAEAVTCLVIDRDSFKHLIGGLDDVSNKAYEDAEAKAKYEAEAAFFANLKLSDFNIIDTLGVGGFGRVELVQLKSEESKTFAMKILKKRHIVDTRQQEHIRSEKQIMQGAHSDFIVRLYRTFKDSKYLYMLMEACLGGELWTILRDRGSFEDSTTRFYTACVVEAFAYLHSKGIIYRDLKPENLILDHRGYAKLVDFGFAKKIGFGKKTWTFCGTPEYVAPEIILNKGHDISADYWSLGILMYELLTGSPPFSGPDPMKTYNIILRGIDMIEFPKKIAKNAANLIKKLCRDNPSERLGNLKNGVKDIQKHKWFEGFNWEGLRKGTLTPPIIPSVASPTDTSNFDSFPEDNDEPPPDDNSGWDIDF
Procedure: as §1

[28] = molecular target: ProfilerPro Kinase Selectivity Assay Kit kinases (Homo sapiens, UniProt Q9BZL6); format: biochemical; conditions: PKD2; 1 μM compound concentration
Procedure: as §1

[29] = molecular target: ProfilerPro Kinase Selectivity Assay Kit kinases (Homo sapiens, UniProt Q9P0L2); format: biochemical; conditions: MARK1; 1 μM compound concentration
Procedure: as §1

[30] = molecular target: ProfilerPro Kinase Selectivity Assay Kit kinases (Homo sapiens, UniProt Q9P1W9); format: biochemical; conditions: PIM2; 1 μM compound concentration
Procedure: as §1

[31] = molecular target: human mutant B-raf (HuBraf V600E) (Homo sapiens (Human), UniProt P15056, V600E); conditions: at 10 μM compound concentration; POC = 100 − percent inhibition
Chain of human mutant B-raf (HuBraf V600E) (P15056 whole entry V600E): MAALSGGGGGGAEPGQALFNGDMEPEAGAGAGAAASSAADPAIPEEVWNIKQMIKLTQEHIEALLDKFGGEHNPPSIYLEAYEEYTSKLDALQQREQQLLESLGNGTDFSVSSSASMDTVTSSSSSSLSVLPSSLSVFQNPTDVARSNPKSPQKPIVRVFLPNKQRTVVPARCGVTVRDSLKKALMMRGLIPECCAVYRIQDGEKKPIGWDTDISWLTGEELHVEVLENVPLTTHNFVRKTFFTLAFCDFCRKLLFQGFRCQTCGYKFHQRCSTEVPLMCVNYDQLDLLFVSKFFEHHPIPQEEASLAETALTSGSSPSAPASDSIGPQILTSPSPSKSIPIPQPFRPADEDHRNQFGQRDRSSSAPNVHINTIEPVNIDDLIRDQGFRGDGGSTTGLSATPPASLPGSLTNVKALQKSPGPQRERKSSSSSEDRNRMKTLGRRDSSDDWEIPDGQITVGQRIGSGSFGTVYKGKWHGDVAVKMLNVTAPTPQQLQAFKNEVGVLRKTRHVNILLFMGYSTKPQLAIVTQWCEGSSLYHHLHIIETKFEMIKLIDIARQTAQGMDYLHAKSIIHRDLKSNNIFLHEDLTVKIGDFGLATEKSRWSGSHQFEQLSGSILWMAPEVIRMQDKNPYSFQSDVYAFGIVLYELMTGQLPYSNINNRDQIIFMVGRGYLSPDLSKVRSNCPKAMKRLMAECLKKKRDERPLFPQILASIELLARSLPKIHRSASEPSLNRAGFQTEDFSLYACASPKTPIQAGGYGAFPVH
Procedure: B-Raf Homogenous Time Resolved Fluorescence (HTRF) Kinase Assay
The final concentration of the kinase reaction buffer is 50 mM Tris-HCl pH 7.5, 10 mM MgCl2, 0.5% glucose, 0.5 mM DTT, 0.01% BSA. […] The detection reaction proceeds for one hour and is read on a RubyStar (BMG Labtech, Durham, N.C.) counter. IC50s for the test compounds are generated using Excel-XLfit software. For single concentration percent of control (POC;=100−percent inhibition) assays, compounds were assayed as above at a single test concentration of 10 M test compound.

COc1ccc(Nc2ncccc2-c2nc(C)nc3[nH]cnc23)cn1 [Example 58, N-(6-methoxypyridin-3-yl)-3-(2-methyl-9H-purin-6-yl)pyridin-2-amine]
POC (Percent of control) SGK1 [1]: 97 POC | POC (Percent of control) CHK1 [2]: 101 POC | POC (Percent of control) AURORA A [3]: 94 POC | POC (Percent of control) MSK1 [4]: 98 POC | POC (Percent of control) HGK [5]: 104 POC | POC (Percent of control) CHK2 [6]: 99 POC | POC (Percent of control) ABL [7]: 99 POC | POC (Percent of control) cRAF [8]: 99 POC | POC (Percent of control) LCK [9]: 98 POC | POC (Percent of control) FYN [10]: 103 POC | POC (Percent of control) LYN [11]: 100 POC | POC (Percent of control) IGF1R [12]: 92 POC | POC (Percent of control) FGFR1 [13]: 94 POC | POC (Percent of control) SRC [14]: 102 POC | POC (Percent of control) PKA alpha [15]: 96 POC | POC (Percent of control) p70S6K [16]: 98 POC | POC (Percent of control) CDK2 [17]: 99 POC | POC (Percent of control) ERK1 [18]: 101 POC | POC (Percent of control) ERK2 [19]: 103 POC | POC (Percent of control) AKT1 [20]: 106 POC | POC (Percent of control) KDR [21]: 93 POC | POC (Percent of control) FLT3 [22]: 112 POC | POC (Percent of control) SYK [23]: 86 POC | POC (Percent of control) PKC zeta [24]: 142 POC | POC (Percent of control) BTK [25]: 102 POC | POC (Percent of control) PAK2 [26]: 102 POC | POC (Percent of control) PKGa2 [27]: 97 POC | POC (Percent of control) PKD2 [28]: 92 POC | POC (Percent of control) MARK1 [29]: 146 POC | POC (Percent of control) PIM2 [30]: 94 POC | Mutant B-raf HTRF Assay POC Mean n = 2 [31]: 97% of Control (POC)

Cc1nc(N)cc(-c2cccnc2Nc2cccc3[nH]ncc23)n1 [Example 27, N-(3-(6-Amino-2-Methylpyrimidin-4-yl)Pyridin-2-yl)-1H-Indazol-4-Amine]
POC (Percent of control) SGK1 [1]: 85 POC | POC (Percent of control) CHK1 [2]: 103 POC | POC (Percent of control) AURORA A [3]: 78 POC | POC (Percent of control) MSK1 [4]: 94 POC | POC (Percent of control) HGK [5]: 91 POC | POC (Percent of control) CHK2 [6]: 97 POC | POC (Percent of control) ABL [7]: 104 POC | POC (Percent of control) cRAF [8]: 95 POC | POC (Percent of control) LCK [9]: 101 POC | POC (Percent of control) FYN [10]: 98 POC | POC (Percent of control) LYN [11]: 91 POC | POC (Percent of control) IGF1R [12]: 41 POC | POC (Percent of control) FGFR1 [13]: 94 POC | POC (Percent of control) SRC [14]: 89 POC | POC (Percent of control) PKA alpha [15]: 84 POC | POC (Percent of control) p70S6K [16]: 91 POC | POC (Percent of control) CDK2 [17]: 84 POC | POC (Percent of control) ERK1 [18]: 100 POC | POC (Percent of control) ERK2 [19]: 97 POC | POC (Percent of control) AKT1 [20]: 98 POC | POC (Percent of control) KDR [21]: 81 POC | POC (Percent of control) FLT3 [22]: 73 POC | POC (Percent of control) SYK [23]: 83 POC | POC (Percent of control) PKC zeta [24]: 99 POC | POC (Percent of control) BTK [25]: 99 POC | POC (Percent of control) PAK2 [26]: 99 POC | POC (Percent of control) PKGa2 [27]: 90 POC | POC (Percent of control) PKD2 [28]: 102 POC | POC (Percent of control) MARK1 [29]: 102 POC | POC (Percent of control) PIM2 [30]: 106 POC | Mutant B-raf HTRF Assay POC Mean n = 2 [31]: 110% of Control (POC)

c1cnc(Nc2cccc3[nH]ccc23)c(-c2ncnc3[nH]cnc23)c1 [Example 19, N-(3-(9H-Purin-6-yl)Pyridin-2-yl)-1H-Indol-4-Amine]
POC (Percent of control) SGK1 [1]: 88 POC | POC (Percent of control) CHK1 [2]: 83 POC | POC (Percent of control) AURORA A [3]: 24 POC | POC (Percent of control) MSK1 [4]: 106 POC | POC (Percent of control) HGK [5]: 50 POC | POC (Percent of control) CHK2 [6]: 18 POC | POC (Percent of control) ABL [7]: 19 POC | POC (Percent of control) cRAF [8]: 56 POC | POC (Percent of control) LCK [9]: 70 POC | POC (Percent of control) FYN [10]: 33 POC | POC (Percent of control) LYN [11]: 50 POC | POC (Percent of control) IGF1R [12]: 94 POC | POC (Percent of control) FGFR1 [13]: 51 POC | POC (Percent of control) SRC [14]: 23 POC | POC (Percent of control) PKA alpha [15]: 70 POC | POC (Percent of control) p70S6K [16]: 91 POC | POC (Percent of control) CDK2 [17]: 90 POC | POC (Percent of control) ERK1 [18]: 93 POC | POC (Percent of control) ERK2 [19]: 94 POC | POC (Percent of control) AKT1 [20]: 94 POC | POC (Percent of control) KDR [21]: 29 POC | POC (Percent of control) FLT3 [22]: 25 POC | POC (Percent of control) SYK [23]: 15 POC | POC (Percent of control) PKC zeta [24]: 98 POC | POC (Percent of control) BTK [25]: 75 POC | POC (Percent of control) PAK2 [26]: 105 POC | POC (Percent of control) PKGa2 [27]: 93 POC | POC (Percent of control) PKD2 [28]: 97 POC | POC (Percent of control) MARK1 [29]: 95 POC | POC (Percent of control) PIM2 [30]: 105 POC | Mutant B-raf HTRF Assay POC Mean n = 2 [31]: 7% of Control (POC)
